Laboratory results taken from patent publication US20210395239A1 (Hoffmann-La Roche Inc., priority 2018, published 2021).

Key:
[1] = target: T1, hTLR9 (Homo sapiens, UniProt Q9NR96); assay: HEK293-Blue-hTLR-9 cells assay (SEAP reporter, ODN2006 stimulation); type: cell-based; design: host or cells: HEK293 (HEK-Blue hTLR9); conditions: HEK293-Blue-hTLR9 cells, ODN2006, 20 hrs; read-out: HEK/hTLR9 IC50
T1 sequence (Q9NR96 26-1032): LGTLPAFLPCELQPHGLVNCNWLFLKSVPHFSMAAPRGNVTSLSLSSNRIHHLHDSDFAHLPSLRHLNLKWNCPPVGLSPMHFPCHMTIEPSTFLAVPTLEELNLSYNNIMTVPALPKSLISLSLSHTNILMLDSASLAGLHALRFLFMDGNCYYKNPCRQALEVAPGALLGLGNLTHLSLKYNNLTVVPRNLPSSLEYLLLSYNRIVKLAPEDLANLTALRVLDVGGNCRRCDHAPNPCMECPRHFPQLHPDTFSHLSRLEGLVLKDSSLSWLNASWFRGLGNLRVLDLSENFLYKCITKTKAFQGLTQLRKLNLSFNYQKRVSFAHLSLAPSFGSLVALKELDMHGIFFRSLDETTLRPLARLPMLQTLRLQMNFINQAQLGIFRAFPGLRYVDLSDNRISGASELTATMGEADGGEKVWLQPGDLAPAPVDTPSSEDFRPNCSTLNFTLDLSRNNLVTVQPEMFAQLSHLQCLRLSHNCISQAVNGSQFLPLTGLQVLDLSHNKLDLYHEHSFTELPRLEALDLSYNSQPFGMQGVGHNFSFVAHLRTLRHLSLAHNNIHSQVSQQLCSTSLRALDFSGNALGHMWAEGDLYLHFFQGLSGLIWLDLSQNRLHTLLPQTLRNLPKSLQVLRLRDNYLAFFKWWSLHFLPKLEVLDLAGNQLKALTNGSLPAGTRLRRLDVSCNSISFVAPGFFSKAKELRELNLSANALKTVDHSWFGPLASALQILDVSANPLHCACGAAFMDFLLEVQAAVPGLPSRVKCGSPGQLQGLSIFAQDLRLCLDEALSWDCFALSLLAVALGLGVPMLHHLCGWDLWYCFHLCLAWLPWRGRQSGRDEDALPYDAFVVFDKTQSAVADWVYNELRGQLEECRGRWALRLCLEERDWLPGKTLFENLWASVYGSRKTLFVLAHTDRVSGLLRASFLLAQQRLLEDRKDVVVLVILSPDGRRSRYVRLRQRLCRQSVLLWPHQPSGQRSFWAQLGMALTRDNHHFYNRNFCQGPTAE
Outline: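 Antagonism read as lowered SEAP reporter absorbance (620–655 nm, QUANTI-Blue, 2 h, 37 °C) in supernatants. Before that, ODN2006-stimulated HEK293-Blue cells stably expressing human TLR9 were exposed to compound dilutions at 1% final DMSO for 20 h at 37 °C.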

[2] = target: T2, CYP3A4 (Homo sapiens, UniProt P08684); assay: CYP inhibition assay in human liver microsome, CYP3A4; type: in vitro ADME; conditions: substrate midazolam 5 μM, third value of 2C9/2D6/3A4; for inhibition at 5 min, 10 µM: human, human liver microsomes, probe midazolam 5 μM
T2 construct: tissue BD-Gentest 452117; host or cells: human liver microsomes
Outline: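 Pooled human liver microsomes with a substrate for each CYP were incubated with compound at 37 °C after NADPH addition, for 5 min (CYP2D6: 10 min), then quenched with acetonitrile containing labelled metabolite standards. Metabolite/internal-standard peak area ratios were measured by RapidFire MS/MS. % inhibition was scaled between DMSO and standard-inhibitor controls.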

T2 sequence (P08684 whole entry): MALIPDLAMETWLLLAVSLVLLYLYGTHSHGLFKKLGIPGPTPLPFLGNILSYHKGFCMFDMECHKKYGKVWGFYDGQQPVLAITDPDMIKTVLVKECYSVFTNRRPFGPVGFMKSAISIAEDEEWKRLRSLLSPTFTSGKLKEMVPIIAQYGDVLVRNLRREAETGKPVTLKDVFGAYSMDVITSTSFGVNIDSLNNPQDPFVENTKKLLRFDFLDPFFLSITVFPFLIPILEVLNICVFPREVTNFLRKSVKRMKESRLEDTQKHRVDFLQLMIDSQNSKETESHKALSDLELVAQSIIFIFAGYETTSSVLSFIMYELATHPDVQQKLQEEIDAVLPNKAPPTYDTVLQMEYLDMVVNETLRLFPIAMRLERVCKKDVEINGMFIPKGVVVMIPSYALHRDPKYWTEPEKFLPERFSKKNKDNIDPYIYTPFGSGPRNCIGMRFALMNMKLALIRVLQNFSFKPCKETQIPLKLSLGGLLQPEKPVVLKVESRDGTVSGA

| IC50 [1] [µM] | inhibition at 5 min, 10 µM [2] [%] | CYP (%) 3A4 inhibition [2] [%] | Structure (SMILES) |
| --- | --- | --- | --- |
| 0.119 | 16 |  | COC1CN(c2ccc(N3CCN(C[C@H]4CN(c5ccc(C#N)c6ncccc56)C[C@@H](C)O4)CC3)cn2)CC1N (stereo partly drawn) [Example 43, 5-[(2S,6R)-2-[[4-[6-(3-amino-4-methoxy-pyrrolidin-1-yl)-3-pyridyl]piperazin-1-yl]methyl]-6-methyl-morpholin-4-yl]quinoline-8-carbonitrile] |
| 0.032 |  | 2 | COC1CN(c2nccc(N3CCN(C[C@H]4CN(c5ccc(C#N)c6ncccc56)C[C@@H](C)O4)CC3)n2)C[C@H]1N (stereo in doubt) [Example 52, 5-[(2S,6R)-2-[[4-[2-[(3R,4R)-3-amino-4-methoxy-pyrrolidin-1-yl]pyrimidin-4-yl]piperazin-1-yl]methyl]-6-methyl-morpholin-4-yl]quinoline-8-carbonitrile] |
| 0.104 | 23.5 |  | COC1CNC[C@H]1Nc1cccc(N2CCN(C[C@H]3CN(c4ccc(C#N)c5ncccc45)C[C@@H](C)O3)CC2)n1 (stereo in doubt) [Example 39, 5-[(2S,6R)-2-[[4-[6-[[(3R,4R)-4-methoxypyrrolidin-3-yl]amino]-2-pyridyl]piperazin-1-yl]methyl]-6-methyl-morpholin-4-yl]quinoline-8-carbonitrile] |
| 0.219 | -1.5 |  | C[C@@H]1CN(c2ccc(C#N)c3ncccc23)C[C@H](CN2CCN(c3cc(N4CCN(C)CC4)ncn3)CC2)O1 [Example 21, 5-[(2R,6S)-2-methyl-6-[[4-[6-(4-methylpiperazin-1-yl)pyrimidin-4-yl]piperazin-1-yl]methyl]morpholin-4-yl]quinoline-8-carbonitrile] |
| 0.188 | -5 |  | C[C@@H]1CN(c2ccc(C#N)c3ncccc23)C[C@H](CN2CCN(c3nc(N4CCNCC4)ncc3F)CC2)O1 [Example 45, 5-[(2S,6R)-2-[[4-(5-fluoro-2-piperazin-1-yl-pyrimidin-4-yl)piperazin-1-yl]methyl]-6-methyl-morpholin-4-yl]quinoline-8-carbonitrile] |
| 0.097 | 20 |  | C[C@@H]1CN(c2ccc(C#N)c3ncccc23)C[C@H](CN2CCN(c3cccc(NC4CNC4)n3)CC2)O1 [Example 38] |
| 0.045 | -16 |  | C[C@@H]1CN(c2ccc(C#N)c3ncccc23)C[C@H](CN2CCN(c3ccnc(N4CCN(C)CC4)n3)CC2)O1 [Example 22, 5-((2R,6S)-2-methyl-6-((4-(2-(4-methylpiperazin-1-yl)pyrimidin-4-yl)piperazin-1-yl)methyl)morpholino)quinoline-8-carbonitrile] |
| 0.033 | -4 |  | C[C@@H]1CN(c2ccc(C#N)c3ncccc23)C[C@H](CN2CCN(c3ccnc(N4CCNCC(O)C4)n3)CC2)O1 (stereo partly drawn) [Example 25, 5-[(2S,6R)-2-[[4-[2-(6-hydroxy-1,4-diazepan-1-yl)pyrimidin-4-yl]piperazin-1-yl]methyl]-6-methyl-morpholin-4-yl]quinoline-8-carbonitrile] |
| 0.07 | -7 |  | C[C@@H]1CN(c2ccc(C#N)n3ncc(F)c23)C[C@H](CN2CCN(c3ccc(N4CC5(CN(C)C5)C4)nc3)CC2)O1 [Example 170, 3-fluoro-4-[(2R,6S)-2-methyl-6-[[4-[6-(6-methyl-2,6-diazaspiro[3.3]heptan-2-yl)-3-pyridyl]piperazin-1-yl]methyl]morpholin-4-yl]pyrazolo[1,5-a]pyridine-7-carbonitrile] |
| 0.032 |  | 7.5 | CO[C@H]1CN(c2nccc(N3CCN(C[C@H]4CN(c5ccc(C#N)c6ncccc56)C[C@@H](C)O4)CC3)n2)CC1N (stereo in doubt) [Example 53, 5-[(2S,6R)-2-[[4-[2-[(3S,4S)-3-amino-4-methoxy-pyrrolidin-1-yl]pyrimidin-4-yl]piperazin-1-yl]methyl]-6-methyl-morpholin-4-yl]quinoline-8-carbonitrile] |
| 0.046 | 44 |  | C[C@@H]1CN(c2ccc(C#N)n3ncc(F)c23)C[C@H](CN2CCN(c3ccc(N[C@H]4CNC[C@H]4F)nc3)CC2)O1 [Example 167, 3-fluoro-4-[(2S,6R)-2-[[4-[6-[[(3S,4R)-4-fluoropyrrolidin-3-yl]amino]-3-pyridyl]piperazin-1-yl]methyl]-6-methyl-morpholin-4-yl]pyrazolo[1,5-a]pyridine-7-carbonitrile] |
| 0.051 | -5.5 |  | C[C@@H]1CN(c2ccc(C#N)c3ncccc23)C[C@H](CN2CCN(c3ccnc(N4CCN[C@@H](CO)C4)n3)CC2)O1 [Example 29, 5-[(2S,6R)-2-[[4-[2-[(3R)-3-(hydroxymethyl)piperazin-1-yl]pyrimidin-4-yl]piperazin-1-yl]methyl]-6-methyl-morpholin-4-yl]quinoline-8-carbonitrile] |
| 0.116 | 11 |  | C[C@@H]1CN(c2ccc(C#N)n3ncc(F)c23)C[C@H](CN2CCN(c3ccc(N4C[C@H]5NCCO[C@@H]5C4)nc3)CC2)O1 [Example 168, 4-[(2S,6R)-2-[[4-[6-[(4aR,7aR)-3,4,4a,5,7,7a-hexahydro-2H-pyrrolo[3,4-b][1,4]oxazin-6-yl]-3-pyridyl]piperazin-1-yl]methyl]-6-methyl-morpholin-4-yl]-3-fluoro-pyrazolo[1,5-a]pyridine-7-carbonitrile] |
| 0.157 |  |  | C[C@@H]1CN(c2ccc(C#N)n3ncc(F)c23)C[C@H](CN2CCN(c3ccc(N4CC5(CCN5)C4)nc3)CC2)O1 [Example 179, 4-[(2S,6R)-2-[[4-[6-(1,6-diazaspiro[3.3]heptan-6-yl)-3-pyridyl]piperazin-1-yl]methyl]-6-methyl-morpholin-4-yl]-3-fluoro-pyrazolo[1,5-a]pyridine-7-carbonitrile] |
| 0.038 |  |  | Cc1cc(N2CCN(C[C@H]3CN(c4ccc(C#N)c5ncccc45)C[C@@H](C)O3)CC2)nc(NC2CNCC2C#N)n1 (stereo partly drawn) [Example 57, 5-[(2S,6R)-2-[[4-[2-[(4-cyanopyrrolidin-3-yl)amino]-6-methyl-pyrimidin-4-yl]piperazin-1-yl]methyl]-6-methyl-morpholin-4-yl]quinoline-8-carbonitrile] |
| 0.121 |  |  | COc1cnc(N2CCNCC2)nc1N1CCN(C[C@H]2CN(c3ccc(C#N)c4ncccc34)C[C@@H](C)O2)CC1 [Example 48, 5-[(2S,6R)-2-[[4-(5-methoxy-2-piperazin-1-yl-pyrimidin-4-yl)piperazin-1-yl]methyl]-6-methyl-morpholin-4-yl]quinoline-8-carbonitrile] |
| 0.095 |  |  | Cc1cc(N2CCNCC2)nc(N2CCN(C[C@H]3CN(c4ccc(C#N)c5ncccc45)C[C@@H](C)O3)CC2)n1 [Example 68, 5-[(2R,6S)-2-methyl-6-[[4-(4-methyl-6-piperazin-1-yl-pyrimidin-2-yl)piperazin-1-yl]methyl]morpholin-4-yl]quinoline-8-carbonitrile] |
| 0.129 |  |  | Cc1cc(N2CCN(C[C@H]3CN(c4ccc(C(F)(F)F)c5nccnc45)C[C@@H](C)O3)CC2)nc(N2CCNCC2)n1 [Example 65, (2R,6S)-2-methyl-6-[[4-(6-methyl-2-piperazin-1-yl-pyrimidin-4-yl)piperazin-1-yl]methyl]-4-[8-(trifluoromethyl)quinoxalin-5-yl]morpholine] |
